Legend:
Assay type in all cases: in vivo
[1] = tested on: Digitaria sanguinalis (DIGSA); assay: Herbicidal pre-emergence action, section A (Table A12)
Description: (§1) Seeds of mono- and dicotyledonous weed plants were sown in plastic pots (double sowings with one species of mono- and one species of dicotyledonous weed plants per pot), in sandy loam, and covered with soil. The compounds according to the invention, formulated in the form of wettable powders (WP) or as emulsifiable concentrates (EC), were applied to the surface of the covering soil as aqueous suspension or emulsion, with the addition of 0.5% of an additive, at an application rate of 600 l of water per hectare (converted). Following treatment, the pots were placed in a greenhouse and kept under optimum growth conditions for the test plants. The visual grading of the damage to the test plants was carried out after ca. 3 weeks in comparison to untreated controls (herbicidal effect in percent (%): 100% effect=plants have died off, 0% effect=as control plants).

Setaria viridis (SETVI) = assay: Herbicidal pre-emergence action, section A (Table A8)
Description: as §1

Poa annua (POAAN) [2] = assay: Herbicidal pre-emergence action, section A (Table A7); settings: visual grading after ca. 3 weeks vs untreated controls; for pre-emergence activity against POAAN in %: application rate 1280 g/ha; for pest or weed control at 320 g/ha: Poa annua, pre-emergence, 504 h, application rate 320 g/ha, read-out: pre-emergence activity against POAAN in %
Description: as §1

Kochia scoparia (KCHSC) [3] = assay: Herbicidal pre-emergence action, section A (Table A4); settings: visual grading after ca. 3 weeks vs untreated controls
Description: as §1

[4] = tested on: Amaranthus retroflexus (AMARE); assay: Herbicidal pre-emergence action, section A (Table A11)
Description: as §1

Veronica persica (VERPE) [5] = assay: Herbicidal pre-emergence action, section A (Table A10); settings: application rate 1280 g/ha; for pest or weed control at 1280 g/ha: Veronica persica, 504 h, read-out: pre-emergence activity against VERPE in %
Description: as §1

Stellaria media (STEME) [6] = assay: Herbicidal pre-emergence action, section A (Table A9)
Description: as §1

Poa annua (POAAN) [7] = assay: Herbicidal post-emergence action, section B (Table B7); settings: application rate 1280 g/ha; visual rating about 3 weeks after treatment vs untreated controls
Description: (§2) Seeds of mono- and dicotyledonous weed plants were placed in plastic pots in sandy loam soil (doubly sown with in each case one species of mono- or dicotyledonous weed plants per pot), covered with soil and cultivated in a greenhouse under controlled growth conditions. 2 to 3 weeks after sowing, the test plants were treated at the one-leaf stage. The compounds of the invention, formulated in the form of wettable powders (WP) or as emulsion concentrates (EC), were applied onto the green parts of the plants as aqueous suspension or emulsion with addition of 0.5% additive at a water application rate of 600 liters per hectare (converted). After the test plants had been kept in the greenhouse under optimum growth conditions for about 3 weeks, the activity of the preparations was rated visually in comparison to untreated controls. For example, 100% activity=the plants have died, 0% activity=like control plants.

[8] = tested on: Echinochloa crus-galli (ECHCG); assay: Herbicidal pre-emergence action, section A (Table A3); settings: application rate 1280 g/ha, visual grading after ca. 3 weeks vs untreated controls; for pest or weed control at 1280 g/ha: Echinochloa crus-galli, pre-emergence, 504 h, read-out: pre-emergence activity against ECHCG in %
Description: as §1

Lolium rigidum (LOLRI) = assay: Herbicidal pre-emergence action, section A (Table A5); settings: application rate 1280 g/ha, visual grading after ca. 3 weeks vs untreated controls; for pest or weed control at 1280 g/ha: Lolium rigidum, pre-emergence, 504 h, read-out: pre-emergence activity against LOLRI in %
Description: as §1

[9] = tested on: Amaranthus retroflexus (AMARE); assay: Herbicidal post-emergence action, section B (Table B11); settings: application rate 1280 g/ha, visual rating about 3 weeks after treatment vs untreated controls
Description: as §2

[10] = tested on: Matricaria inodora (MATIN); assay: Herbicidal pre-emergence action, section A (Table A6); settings: Tripleurospermum inodorum, pre-emergence, 504 h; application rate 1280 g/ha; visual grading after ca. 3 weeks vs untreated controls; read-out: pre-emergence activity against MATIN in %
Description: as §1

Kochia scoparia (KCHSC) [11] = assay: Herbicidal post-emergence action, section B (Table B4); settings: application rate 1280 g/ha, visual rating about 3 weeks after treatment vs untreated controls
Description: as §2

Stellaria media (STEME) [12] = assay: Herbicidal post-emergence action, section B (Table B9); settings: application rate 1280 g/ha; visual rating about 3 weeks after treatment vs untreated controls
Description: as §2

Veronica persica (VERPE) [13] = assay: Herbicidal post-emergence action, section B (Table B10); settings: application rate 1280 g/ha; visual rating about 3 weeks after treatment vs untreated controls
Description: as §2

[14] = Setaria viridis, 504 h, application rate 320 g/ha, read-out: pre-emergence activity against SETVI in %
[15] = Amaranthus retroflexus, 504 h, application rate 320 g/ha, read-out: pre-emergence activity against AMARE in %
[16] = Digitaria sanguinalis, 504 h, application rate 1280 g/ha, read-out: pre-emergence activity against DIGSA in %

COCCOCCOCC(=O)N1CSc2cc(C)c(-c3cccc(F)c3F)nc21 [Example I-149]
100%: pre-emergence activity against DIGSA in % ([1]; application rate 1280 g/ha) | pre-emergence activity against SETVI in % (Setaria viridis (SETVI); application rate 320 g/ha) | pre-emergence activity against POAAN in % (Poa annua (POAAN) [2]) | pre-emergence activity against ECHCG in % [8]
90%: pre-emergence activity against KCHSC in % (Kochia scoparia (KCHSC) [3]; application rate 1280 g/ha) | pre-emergence activity against AMARE in % ([4]; application rate 320 g/ha) | pre-emergence activity against VERPE in % (Veronica persica (VERPE) [5]) | pre-emergence activity against STEME in % (Stellaria media (STEME) [6]; application rate 1280 g/ha) | post-emergence activity against POAAN in % (Poa annua (POAAN) [7]) | pre-emergence activity against LOLRI in % (Lolium rigidum (LOLRI))

Cc1cccc(-c2nc3c(cc2Br)SCN3C(=O)C2(C)CC(Cl)=NO2)c1C (stereo not drawn) [Example I-140]
90%: pre-emergence activity against AMARE in % ([4]; application rate 1280 g/ha) | pre-emergence activity against STEME in % (Stellaria media (STEME) [6]; application rate 1280 g/ha)
100%: pre-emergence activity against POAAN in % (Poa annua (POAAN) [2])

O=C(c1ccccc1C(F)(F)F)N1CSc2cc(Br)c(-c3ccc(F)cc3F)nc21 [Example I-043]
90%: post-emergence activity against AMARE in % [9] | pre-emergence activity against POAAN in % (Poa annua (POAAN) [2])

CCC(=O)N1C[S+]([O-])c2cc(C)c(-c3ccc(F)cc3F)nc21 (stereo not drawn) [Example I-053]
100%: pest or weed control at 320 g/ha ([1]; Digitaria sanguinalis, 504 h, application rate 320 g/ha, read-out: pre-emergence activity against DIGSA in %) | pest or weed control at 320 g/ha (Setaria viridis (SETVI); [14]) | pest or weed control at 320 g/ha (Poa annua (POAAN) [2]) | pest or weed control at 1280 g/ha [8] | pest or weed control at 1280 g/ha (Lolium rigidum (LOLRI))
90%: pest or weed control at 1280 g/ha ([9]; Amaranthus retroflexus, post-emergence, 504 h, read-out: post-emergence activity against AMARE in %) | pest or weed control at 320 g/ha (Kochia scoparia (KCHSC) [3]; Bassia scoparia, pre-emergence, 504 h, application rate 320 g/ha, read-out: pre-emergence activity against KCHSC in %) | pest or weed control at 320 g/ha [4, 15] | pest or weed control at 1280 g/ha (Veronica persica (VERPE) [5]) | pest or weed control at 1280 g/ha (Stellaria media (STEME) [6]; Stellaria media, 504 h, application rate 1280 g/ha, read-out: pre-emergence activity against STEME in %) | pest or weed control at 1280 g/ha [10]

COc1ccccc1-c1nc2c(cc1C)[S+]([O-])CN2S(C)(=O)=O (stereo not drawn) [Example I-101]
90%: pest or weed control at 1280 g/ha [1, 16] | pest or weed control at 1280 g/ha (Kochia scoparia (KCHSC) [3]; Bassia scoparia, pre-emergence, 504 h, application rate 1280 g/ha, read-out: pre-emergence activity against KCHSC in %) | pest or weed control at 1280 g/ha (Kochia scoparia (KCHSC) [11]; Bassia scoparia, post-emergence, 504 h, read-out: post-emergence activity against KCHSC in %) | pest or weed control at 1280 g/ha ([4]; Amaranthus retroflexus, 504 h, application rate 1280 g/ha, read-out: pre-emergence activity against AMARE in %) | pest or weed control at 1280 g/ha [8]
100%: pest or weed control at 320 g/ha (Setaria viridis (SETVI); [14]) | pest or weed control at 1280 g/ha (Lolium rigidum (LOLRI))

Fc1c(Cl)cccc1-c1nc2c(cc1Br)SCN2 [Example I-103]
90%: post-emergence activity against KCHSC in % (Kochia scoparia (KCHSC) [11]) | pre-emergence activity against AMARE in % ([4]; application rate 1280 g/ha) | post-emergence activity against STEME in % (Stellaria media (STEME) [12]) | pre-emergence activity against ECHCG in % [8]
100%: pre-emergence activity against SETVI in % (Setaria viridis (SETVI); application rate 1280 g/ha) | pre-emergence activity against POAAN in % (Poa annua (POAAN) [2])

CCC(=O)N1C[S+]([O-])c2cc(C)c(-c3cc(F)ccc3F)nc21 (stereo not drawn) [Example I-167]
90%: pest or weed control at 1280 g/ha (Setaria viridis (SETVI); Setaria viridis, 504 h, application rate 1280 g/ha, read-out: pre-emergence activity against SETVI in %) | pest or weed control at 320 g/ha [4, 15] | pest or weed control at 1280 g/ha (Veronica persica (VERPE) [5]) | pest or weed control at 320 g/ha (Stellaria media (STEME) [6]; Stellaria media, 504 h, application rate 320 g/ha, read-out: pre-emergence activity against STEME in %) | pest or weed control at 1280 g/ha [10]
100%: pest or weed control at 1280 g/ha [1, 16] | pest or weed control at 320 g/ha (Poa annua (POAAN) [2]) | pest or weed control at 1280 g/ha [8] | pest or weed control at 1280 g/ha (Lolium rigidum (LOLRI))

CCS(=O)(=O)N1CSc2cc(Br)c(-c3cccc(Cl)c3F)nc21 [Example I-132]
90%: post-emergence activity against AMARE in % [9] | post-emergence activity against VERPE in % (Veronica persica (VERPE) [13]) | pre-emergence activity against VERPE in % (Veronica persica (VERPE) [5])
